Measurements from patent US20020071842A1, “Soluble CD1 compositions and uses thereof” (priority 2000, published 2002).

Legend:
[1] = test system: T cells in PBMCs purified from a healthy donor; experiment: Three color flow cytometric staining of PBMCs with lipid loaded CD1d-Fc aggregates; format: cell-based, human; conditions: CD1d-Fc aggregate treated with antigen, anti-CD3 and anti-CD161 co-staining
Procedure: To facilitate binding to CD1 specific T cells for detection by flow cytometry, a highly multimerized form of the CD1d fusion protein was formed using fluorescently labeled protein A molecules. Protein A molecules spontaneously associate in solution at neutral pH with immunoglobulin Fc regions, forming complexes containing four Fc molecules and two protein A molecules (4+2 complexes, reference 2). The human CD1d-Fc fusion protein was incubated with Alexa 488 dye labeled protein A, and the 4+2 complexes purified by size exclusion chromatography on a Pharmacia Superose 6 column using PBS pH 7.2 as a running buffer. The purified 4+2 aggregates were concentrated to 100 μg/ml with ovalbumin as a carrier protein. The CD1d-Fc aggregate was then pre-incubated for 24 to 48 hours at 37° C. with antigenic glycolipids dissolved in DMSO at a 40:1 molar ratio of lipid to fusion protein, or with an equivalent volume of DMSO alone as a negative control. The T cell staining was performed at room temperature or 4° C. for 20 min, at a concentration of 40 μg/ml of the lipid or control treated CD1d-Fc aggregate.
To facilitate binding to CD1 specific T cells for detection by flow cytometry, a highly multimerized form of the CD1d fusion protein is formed using fluorescently labeled protein A molecules. […]

[2] = test system: α-GalCer reactive NKT cell hybridomas; experiment: Plate-bound mCD1d fusion protein hybridoma stimulation assay, hybridoma panel; format: cell-based, mouse; conditions: some of the α-GalCer reactive NKT cell hybridomas
Source text: Our observation that two NKT cell hybridomas, 24.8.A and 24.9.E, differed in their antigen reactivity, raised the possibility that NKT cells may have heterogeneous antigen specificities. To extend our analysis of NKT cells, and to compare antigen recognition by mCD1d-restricted T cells of the diverse TCR population, we tested 9 NKT and 8 diverse TCR mCD1d-restricted hybridomas for recognition of 14 purified and synthetic lipid antigens (see Tables 1 and 2). None of the hybridomas produced detectable IL-2 in response to a negative control protein, and only the 24.8.A hybridoma secreted detectable IL-2 in response to untreated mCD1d fusion protein (Table 2). Eight out of nine NKT cell hybridomas were potently stimulated by α-GalCer treated fusion protein, whereas none of the diverse TCR hybridomas reproducibly recognized this antigen (Table 2). […]
IL-2 secreted in the hybridoma stimulation assays was quantitated in a double antibody sandwich ELISA, by comparison to a standard curve of purified murine IL-2 (Pharmingen, San Diego, Calif.). […] IL-2 was detected by addition of a biotinylated rat anti-mouse IL-2 antibody, followed by addition of a streptavidin-alkaline phophatase conjugate, and a chromogenic substrate. The pg/ml of IL-2 present in the hybridoma supernatants was quantitated by linear regression of the IL-2 standard curve.

With `CCCCCCCCCCCCCCCCCCCCCCCCCC(=O)N[C@@H](CO[C@H]1O[C@H](CO)[C@H](O)[C@H](O)[C@H]1O)[C@H](O)[C@H](O)CCCCCCCCCCCCCC` [α-GalCer, α-galactosylceramide] the “T cells stained relative to CD1d-Fc treated with DMSO alone” value [1] was “about 6 fold” and the “T cells stained relative to the UPC10 negative control” value [1] was “about 10 fold”.
phosphatidylinositol [PI] was tested, and the “activity relative to synthetic α-GalCer” value [2] was 10-20%.
